Measurements reported in ChEMBL document CHEMBL1201862, “PubChem BioAssay data set” (2004).
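Exposure lasted 48 hours, with cells grown in 96-well plates and compounds tested at five concentrations. At the GI50, growth is halved.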 Active and inactive are the calls of the source. Rule as the data show it: active = GI50 up to about 1.1 µM and inactive = higher.

Assays:
Assay in all cases: inhibition of tumour cell growth, NCI panel, 48 h
MDA-MB-435 = tested on: MDA-MB-435
SK-MEL-28 = tested on: SK-MEL-28
PC-3 = tested on: PC-3
RPMI-8226 = tested on: RPMI-8226
Malme-3M = tested on: Malme-3M
NCI-H226 = tested on: NCI-H226
CAKI-1 = tested on: CAKI-1
OVCAR-5 = tested on: OVCAR-5
UACC-257 = tested on: UACC-257
SNB-75 = tested on: SNB-75
A549 = tested on: A549
SF-539 = tested on: SF-539
MDA-N = tested on: MDA-N
SW-620 = tested on: SW-620
SK-OV-3 = tested on: SK-OV-3
HL-60 = tested on: HL-60
UACC-62 = tested on: UACC-62
U-251 = tested on: U-251
OVCAR-3 = tested on: OVCAR-3
SR = tested on: SR

Measured: GI50

CC(C)=C[C@H]1CCC2(OCCO2)[C@]1(C)CO
inactive: MDA-MB-435 > 100 µM | SK-MEL-28 > 100 µM | PC-3 > 100 µM | RPMI-8226 > 100 µM | Malme-3M > 100 µM | NCI-H226 > 100 µM | CAKI-1 > 100 µM | OVCAR-5 > 100 µM | UACC-257 > 100 µM | SNB-75 > 100 µM | A549 > 100 µM | SF-539 > 100 µM | MDA-N > 100 µM | SW-620 > 100 µM | SK-OV-3 > 100 µM

CC(CO)C1C[C@H](O)[C@@]2(C)CC(=O)C=C(CO)[C@@H]2C1 (stereo not given in full)
inactive: MDA-MB-435 > 100 µM | SK-MEL-28 > 100 µM | HL-60 92 µM | UACC-62 > 100 µM | NCI-H226 > 100 µM | CAKI-1 > 100 µM | OVCAR-5 > 100 µM | U-251 > 100 µM | UACC-257 > 100 µM | SNB-75 > 100 µM | OVCAR-3 > 100 µM | A549 > 100 µM | SF-539 > 100 µM | MDA-N > 100 µM | SW-620 > 100 µM | SK-OV-3 > 100 µM

O=C(O)CN1CCN(CC(=O)N2CCN(C(=O)OCc3ccccc3)CC2)CCN(CC(=O)O)CCN(CC(=O)N2CCN(C(=O)OCc3ccccc3)CC2)CC1
inactive: MDA-MB-435 > 100 µM | SK-MEL-28 > 100 µM | HL-60 > 100 µM | PC-3 > 100 µM | RPMI-8226 > 100 µM | UACC-62 > 100 µM | Malme-3M > 100 µM | NCI-H226 > 100 µM | SR > 100 µM | CAKI-1 > 100 µM | OVCAR-5 > 100 µM | U-251 > 100 µM | UACC-257 > 100 µM | SNB-75 > 100 µM | OVCAR-3 > 100 µM | A549 > 100 µM | SF-539 > 100 µM | SW-620 > 100 µM | SK-OV-3 > 100 µM

CCOC(=O)c1cc(-c2ccc(Cl)cc2)c([N+](=O)[O-])n1C
inactive: MDA-MB-435 > 10 µM | HL-60 > 10 µM | Malme-3M > 10 µM | NCI-H226 > 10 µM | SR 5.08 µM | OVCAR-5 > 10 µM | U-251 > 10 µM | UACC-257 > 10 µM | OVCAR-3 > 10 µM | A549 > 10 µM | SF-539 > 10 µM | MDA-N > 10 µM | SK-OV-3 > 10 µM

C=CCCCC1CCCNC1=O (stereo not given)
inactive: MDA-MB-435 > 100 µM | SK-MEL-28 > 100 µM | PC-3 > 100 µM | RPMI-8226 > 100 µM | UACC-62 > 100 µM | NCI-H226 > 100 µM | CAKI-1 > 100 µM | OVCAR-5 > 100 µM | U-251 > 100 µM | UACC-257 > 100 µM | SNB-75 > 100 µM | OVCAR-3 > 100 µM | A549 > 100 µM | SF-539 > 100 µM | MDA-N 58.5 µM | SW-620 > 100 µM | SK-OV-3 > 100 µM
